Tests used:
Test in all cases: relative viability (nuclei count vs DMSO), 5 days (fraction); higher = more cells survive
COR-L23 = test system: COR-L23
How it was run: (§1)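 Lung cancer cell lines in 1536-well plates got either a single drug or a fixed anchor-drug dose together with five library-drug doses (not always all listed) in √10 steps, by pin tool, on the day after seeding. Nuclei were counted after 5 days, and relative viability is the treated-to-vehicle ratio of nuclei counts. Values are medians of duplicate plates.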

NCI-H23 = test system: NCI-H23
How it was run: as §1

NCI-H647 = test system: NCI-H647
How it was run: as §1

LC-2-ad = test system: LC-2-ad
How it was run: as §1

NCI-H1993 = test system: NCI-H1993
How it was run: as §1

HOP-62 = test system: HOP-62
How it was run: as §1

ABC-1 = test system: ABC-1
How it was run: as §1

NCI-H520 = test system: NCI-H520
How it was run: as §1

NCI-H2347 = test system: NCI-H2347
How it was run: as §1

HCC-44 = test system: HCC-44
How it was run: as §1

NCI-H838 = test system: NCI-H838
How it was run: as §1

NCI-H2085 = test system: NCI-H2085
How it was run: as §1

NCI-H1355 = test system: NCI-H1355
How it was run: as §1

NCI-H661 = test system: NCI-H661
How it was run: as §1

NCI-H1395 = test system: NCI-H1395
How it was run: as §1

CAL-12T = test system: CAL-12T
How it was run: as §1

201T = test system: 201T
How it was run: as §1

NCI-H1666 = test system: NCI-H1666
How it was run: as §1

NCI-H322M = test system: NCI-H322M
How it was run: as §1

NCI-H2228 = test system: NCI-H2228
How it was run: as §1

LCLC-103H = test system: LCLC-103H
How it was run: as §1

NCI-H1651 = test system: NCI-H1651
How it was run: as §1

CCCCCCCCCCCC1=C(O)C(=O)C=C(O)C1=O [Embelin] + C[C@]1(O)C[C@@H](c2nc(-c3ccc4ccc(-c5ccccc5)nc4c3)c3c(N)nccn32)C1 [Linsitinib] (partner 1 µM)
relative viability (COR-L23; first compound 0.08 µM): 0.896 | relative viability (COR-L23; first compound 0.8 µM): 1.08 | relative viability (COR-L23; first compound 2.53 µM): 0.962 | relative viability (COR-L23; first compound 8 µM): 1.05 | relative viability (NCI-H23; first compound 0.08 µM): 0.548 | relative viability (NCI-H23; first compound 0.8 µM): 0.547 | relative viability (NCI-H23; first compound 2.53 µM): 0.609 | relative viability (NCI-H23; first compound 8 µM): 0.652 | relative viability (NCI-H647; first compound 0.08 µM): 1.31 | relative viability (NCI-H647; first compound 0.8 µM): 1.27 | relative viability (NCI-H647; first compound 2.53 µM): 1.32 | relative viability (NCI-H647; first compound 8 µM): 1.28 | relative viability (LC-2-ad; first compound 0.08 µM): 0.822 | relative viability (LC-2-ad; first compound 0.8 µM): 0.891 | relative viability (LC-2-ad; first compound 2.53 µM): 0.526 | relative viability (LC-2-ad; first compound 8 µM): 0.913 | relative viability (NCI-H1993; first compound 0.08 µM): 0.734 | relative viability (NCI-H1993; first compound 0.8 µM): 0.807 | relative viability (NCI-H1993; first compound 2.53 µM): 0.764 | relative viability (NCI-H1993; first compound 8 µM): 0.771 | relative viability (HOP-62; first compound 0.08 µM): 0.937 | relative viability (HOP-62; first compound 0.8 µM): 1.05 | relative viability (HOP-62; first compound 2.53 µM): 1.06 | relative viability (HOP-62; first compound 8 µM): 0.96 | relative viability (ABC-1; first compound 0.08 µM): 0.863 | relative viability (ABC-1; first compound 0.8 µM): 0.786 | relative viability (ABC-1; first compound 2.53 µM): 0.772 | relative viability (ABC-1; first compound 8 µM): 0.825 | relative viability (NCI-H520; first compound 0.08 µM): 1 | relative viability (NCI-H520; first compound 0.8 µM): 0.849 | relative viability (NCI-H520; first compound 2.53 µM): 0.869 | relative viability (NCI-H520; first compound 8 µM): 1.03 | relative viability (NCI-H2347; first compound 0.08 µM): 0.968 | relative viability (NCI-H2347; first compound 0.8 µM): 1.03 | relative viability (NCI-H2347; first compound 2.53 µM): 1.09 | relative viability (NCI-H2347; first compound 8 µM): 0.958 | relative viability (HCC-44; first compound 0.08 µM): 0.739 | relative viability (HCC-44; first compound 0.8 µM): 0.654 | relative viability (HCC-44; first compound 2.53 µM): 0.742 | relative viability (HCC-44; first compound 8 µM): 0.642 | relative viability (NCI-H838; first compound 0.08 µM): 1.06 | relative viability (NCI-H838; first compound 0.8 µM): 1.13 | relative viability (NCI-H838; first compound 2.53 µM): 1.03 | relative viability (NCI-H838; first compound 8 µM): 1.07 | relative viability (NCI-H2085; first compound 0.08 µM): 0.909 | relative viability (NCI-H2085; first compound 0.8 µM): 1.02 | relative viability (NCI-H2085; first compound 2.53 µM): 0.972 | relative viability (NCI-H2085; first compound 8 µM): 1.04 | relative viability (NCI-H1355; first compound 0.08 µM): 0.757 | relative viability (NCI-H1355; first compound 0.8 µM): 0.813 | relative viability (NCI-H1355; first compound 2.53 µM): 0.968 | relative viability (NCI-H1355; first compound 8 µM): 0.724 | relative viability (NCI-H661; first compound 0.08 µM): 0.635 | relative viability (NCI-H661; first compound 0.8 µM): 0.717 | relative viability (NCI-H661; first compound 2.53 µM): 0.546 | relative viability (NCI-H661; first compound 8 µM): 0.623 | relative viability (NCI-H1395; first compound 0.08 µM): 1.22 | relative viability (NCI-H1395; first compound 0.8 µM): 1.38 | relative viability (NCI-H1395; first compound 2.53 µM): 0.99 | relative viability (NCI-H1395; first compound 8 µM): 0.873 | relative viability (CAL-12T; first compound 0.08 µM): 0.783 | relative viability (CAL-12T; first compound 0.8 µM): 0.915 | relative viability (CAL-12T; first compound 2.53 µM): 0.749 | relative viability (CAL-12T; first compound 8 µM): 0.831 | relative viability (201T; first compound 0.08 µM): 1.06 | relative viability (201T; first compound 0.8 µM): 1.1 | relative viability (201T; first compound 2.53 µM): 1.09 | relative viability (201T; first compound 8 µM): 1.01 | relative viability (NCI-H1666; first compound 0.08 µM): 0.898 | relative viability (NCI-H1666; first compound 0.8 µM): 0.995 | relative viability (NCI-H1666; first compound 2.53 µM): 0.83 | relative viability (NCI-H1666; first compound 8 µM): 0.97 | relative viability (NCI-H322M; first compound 0.08 µM): 0.936 | relative viability (NCI-H322M; first compound 0.8 µM): 1.08 | relative viability (NCI-H322M; first compound 2.53 µM): 1.1 | relative viability (NCI-H322M; first compound 8 µM): 0.856 | relative viability (NCI-H2228; first compound 0.08 µM): 0.636 | relative viability (NCI-H2228; first compound 0.8 µM): 0.781 | relative viability (NCI-H2228; first compound 2.53 µM): 1.09 | relative viability (NCI-H2228; first compound 8 µM): 0.59 | relative viability (LCLC-103H; first compound 0.08 µM): 1.03 | relative viability (LCLC-103H; first compound 0.8 µM): 1.11 | relative viability (LCLC-103H; first compound 2.53 µM): 1.1 | relative viability (LCLC-103H; first compound 8 µM): 1.03 | relative viability (NCI-H1651; first compound 0.08 µM): 0.955 | relative viability (NCI-H1651; first compound 0.8 µM): 1.1 | relative viability (NCI-H1651; first compound 2.53 µM): 1.04 | relative viability (NCI-H1651; first compound 8 µM): 0.878
